For 21 molecules, IC50 results are on record in ChEMBL document CHEMBL3046786, “Synthesis of piperazinyl benzothiazole/benzoxazole derivatives coupled with 1,3,4-oxadiazole-2-thiol: novel hybrid heterocycles as anticancer agents” (Med Chem Res, 2013).

Assay type in all cases: functional, cell-based
The test system of one experiment is A-431. The experiment can be described thus: Anticancer activity against Homo sapiens (human) A431 cells assessed as inhibition of cell viability after 72 hr by MTT assay. Particulars: A-431, 72 h. (In general: Tetrazolium dyes change colour on reduction, which living cells bring about.)
For a further experiment, the system named is MCF7. Nature of the experiment: Anticancer activity against Homo sapiens (human) MCF7 cells assessed as inhibition of cell viability after 72 hr by MTT assay. The settings on record: MCF7, 72 h.
The subject of a further experiment is A549. The experiment can be described thus: Anticancer activity against Homo sapiens (human) A549 cells assessed as inhibition of cell viability after 72 hr by MTT assay. The settings on record: A549, 72 h.
For another experiment, the system named is HeLa. Nature of the experiment: Anticancer activity against Homo sapiens (human) HeLa cells assessed as inhibition of cell viability after 72 hr by MTT assay.
In a further experiment the test system is HepG2. The experiment can be described thus: Anticancer activity against Homo sapiens (human) HepG2 cells assessed as inhibition of cell viability after 72 hr by MTT assay. Particulars: HepG2, 72 h.

As usually defined, the IC50 is the concentration needed to halve the response being measured. `c1ccc(-c2nnc(SCCCN3CCN(c4nc5ccccc5s4)CC3)o2)cc1`: the IC50 amounted to 93.4 µM in the experiment with A-431; 76.9 µM in the experiment with MCF7; 257 µM in the experiment with A549; 229 µM in the experiment with HeLa; 217 µM with HepG2.

On to `O=C(NCc1nnc(SCCCN2CCN(c3nc4ccccc4s3)CC2)o1)c1ccccc1`, for which the IC50 was found to be 55.9 µM in the experiment on A-431; 39 µM in the experiment on MCF7; 88.7 µM in the experiment with A549; 78.1 µM in the experiment with HeLa; 325 µM in the experiment on HepG2.

As to `Fc1ccc(-c2nnc(SCCCN3CCN(c4nc5ccccc5o4)CC3)o2)cc1`, the IC50 with A-431 came out at 136 µM; with MCF7 it was 52.3 µM; in the experiment on A549, 75.7 µM; in the experiment on HeLa it was 196 µM; in the experiment with HepG2 it was 83.8 µM.

For `Brc1ccc(-c2nnc(SCCCN3CCN(c4nc5ccccc5o4)CC3)o2)cc1`, the IC50 worked out at 57.8 µM with A-431; 115 µM in the experiment on MCF7; 123 µM with A549; 187 µM in the experiment on HeLa; 67.5 µM with HepG2.

Consider `CC(C)(C)Oc1ccc(-c2nnc(SCCCN3CCN(c4nc5ccccc5o4)CC3)o2)cc1`, for which the concentration for half-maximal inhibition (IC50) in the experiment on A-431 is 65.8 µM; with MCF7 it was 94.9 µM; in the experiment on A549 it was 263 µM; with HeLa, 269 µM; in the experiment on HepG2, 121 µM.

For `Oc1ccc(-c2nnc(SCCCN3CCN(c4nc5ccccc5o4)CC3)o2)cc1`, the IC50 with A-431 came out at 116 µM; in the experiment on MCF7 it was 260 µM; with A549, 181 µM; in the experiment on HeLa it was 99.5 µM; in the experiment with HepG2, 502 µM.

On to `c1ccc(-c2nnc(SCCCN3CCN(c4nc5ccccc5o4)CC3)o2)cc1`, for which the IC50 in the experiment with A-431 came out at 57.6 µM; in the experiment on MCF7, 117 µM; in the experiment on A549, 108 µM; with HeLa, 67 µM; in the experiment on HepG2, 102 µM.

As to `O=C(NCc1nnc(SCCCN2CCN(c3nc4ccccc4o3)CC2)o1)c1ccccc1`, the IC50 with A-431 was determined as 36.9 µM; in the experiment on MCF7, 52.7 µM; in the experiment with A549, 102 µM; in the experiment with HeLa it was 63.9 µM; in the experiment on HepG2, 88.9 µM.

With `COc1ccc(-c2nnc(SCCCN3CCN(c4nc5ccccc5s4)CC3)o2)cc1`, the IC50 in the experiment on A-431 is 56.2 µM; in the experiment on MCF7 it was 171 µM; in the experiment with A549, 90.3 µM; with HeLa it was 165 µM; in the experiment with HepG2 it was 134 µM.

Consider `O=[N+]([O-])c1ccc(-c2nnc(SCCCN3CCN(c4nc5ccccc5s4)CC3)o2)cc1`, for which the IC50 in the experiment with A-431 came to 46.5 µM; with MCF7 it was 118 µM; in the experiment with A549, 96.6 µM; in the experiment with HeLa, 97.8 µM; in the experiment with HepG2, 93.3 µM.

Regarding `Cc1ccc(-c2nnc(SCCCN3CCN(c4nc5ccccc5s4)CC3)o2)cc1`, the IC50 in the experiment with A-431 is 61.6 µM; in the experiment on MCF7, 107 µM; with A549, 53.9 µM; in the experiment on HeLa, 179 µM; with HepG2, 96.7 µM.

Regarding `Clc1ccc(-c2nnc(SCCCN3CCN(c4nc5ccccc5s4)CC3)o2)cc1`, the IC50 was determined as 69.2 µM with A-431; 116 µM with MCF7; 110 µM in the experiment on A549; 177 µM in the experiment with HeLa; 87.7 µM in the experiment on HepG2.

In the case of `Fc1ccc(-c2nnc(SCCCN3CCN(c4nc5ccccc5s4)CC3)o2)cc1`, the IC50 in the experiment on A-431 was determined as 67 µM; in the experiment with MCF7, 84.1 µM; with A549, 71.7 µM; in the experiment on HeLa, 134 µM; with HepG2, 234 µM.

On to `Brc1ccc(-c2nnc(SCCCN3CCN(c4nc5ccccc5s4)CC3)o2)cc1`, for which the IC50 in the experiment on A-431 was 51.6 µM; in the experiment on MCF7, 96.3 µM; with A549 it was 62.5 µM; in the experiment on HeLa, 243 µM; in the experiment on HepG2, 103 µM.

In the case of `CC(C)(C)Oc1ccc(-c2nnc(SCCCN3CCN(c4nc5ccccc5s4)CC3)o2)cc1`, the IC50 in the experiment with A-431 stood at 67 µM; in the experiment on MCF7, 89.3 µM; with A549, 71.6 µM; in the experiment with HeLa, 217 µM; with HepG2 it was 202 µM.

As for `Oc1ccc(-c2nnc(SCCCN3CCN(c4nc5ccccc5s4)CC3)o2)cc1`, the IC50 is 54.7 µM with A-431; 81.9 µM with MCF7; 62.1 µM with A549; 139 µM in the experiment with HeLa; 364 µM with HepG2.

With `COc1ccc(-c2nnc(SCCCN3CCN(c4nc5ccccc5o4)CC3)o2)cc1`, the IC50 is 52.7 µM in the experiment on A-431; 52.8 µM in the experiment on MCF7; 93.5 µM in the experiment with A549; 210 µM with HeLa; 66.1 µM with HepG2.

`O=[N+]([O-])c1ccc(-c2nnc(SCCCN3CCN(c4nc5ccccc5o4)CC3)o2)cc1`: the IC50 is 46.9 µM in the experiment on A-431; 90.1 µM with MCF7; 90.8 µM in the experiment with A549; 114 µM in the experiment with HeLa; 67.2 µM with HepG2.

With `Cc1ccc(-c2nnc(SCCCN3CCN(c4nc5ccccc5o4)CC3)o2)cc1`, the IC50 worked out at 100 µM in the experiment with A-431; 60.4 µM with MCF7; 106 µM with A549; 133 µM in the experiment with HeLa; 154 µM in the experiment on HepG2.

`Clc1ccc(-c2nnc(SCCCN3CCN(c4nc5ccccc5o4)CC3)o2)cc1`: the IC50 in the experiment with A-431 amounted to 89.6 µM; in the experiment with MCF7 it was 99.7 µM; in the experiment on A549, 127 µM; in the experiment on HeLa, 101 µM; in the experiment on HepG2, 121 µM.

`COc1cc(/C=C/C(=O)CC(=O)/C=C/c2ccc(O)c(OC)c2)ccc1O` [CURCUMIN]: the IC50 in the experiment on A-431 amounted to 22 µM; in the experiment with MCF7, 26 µM; in the experiment on A549 it was 22 µM; in the experiment on HepG2, 16 µM.
